Test results taken from ChEMBL document CHEMBL4000244, “Probing A-form DNA: A fluorescent aminosugar probe and dual recognition by anthraquinone-neomycin conjugates” (Bioorg Med Chem, 2017).

How the values were obtained:
[1] = Binding affinity to 5'-CCGCGCGC-3' DNA hairpin assessed as change in fluorescence intensity at 1 uM after 45 mins by fluorescence quenching analysis relative to control
[2] = Binding affinity to 5'-GGGGCGGC-3' DNA hairpin assessed as change in fluorescence intensity at 1 uM after 45 mins by fluorescence quenching analysis relative to control
[3] = Binding affinity to 5'-GGCGCGGC-3' DNA hairpin assessed as change in fluorescence intensity at 1 uM after 45 mins by fluorescence quenching analysis relative to control
[4] = Binding affinity to 5'-CGGGCGCC-3' DNA hairpin assessed as change in fluorescence intensity at 1 uM after 45 mins by fluorescence quenching analysis relative to control
[5] = Binding affinity to 5'-GGCCCGGG-3' DNA hairpin assessed as change in fluorescence intensity at 1 uM after 45 mins by fluorescence quenching analysis relative to control
[6] = Binding affinity to 5'-CCGCCGCG-3' DNA hairpin assessed as change in fluorescence intensity at 1 uM after 45 mins by fluorescence quenching analysis relative to control
[7] = Binding affinity to 5'-CCCCGCCC-3' DNA hairpin assessed as change in fluorescence intensity at 1 uM after 45 mins by fluorescence quenching analysis relative to control
[8] = Binding affinity to 5'-GCCGCCGC-3' DNA hairpin assessed as change in fluorescence intensity at 1 uM after 45 mins by fluorescence quenching analysis relative to control
[9] = Binding affinity to 5'-CGGCGGGC-3' DNA hairpin assessed as change in fluorescence intensity at 1 uM after 45 mins by fluorescence quenching analysis relative to control
[10] = Binding affinity to 5'-CGCGCCGG-3' DNA hairpin assessed as change in fluorescence intensity at 1 uM after 45 mins by fluorescence quenching analysis relative to control
[11] = Binding affinity to 5'-GCCGGGCG-3' DNA hairpin assessed as change in fluorescence intensity at 1 uM after 45 mins by fluorescence quenching analysis relative to control
[12] = Binding affinity to 5'-CCCGGCGC-3' DNA hairpin assessed as change in fluorescence intensity at 1 uM after 45 mins by fluorescence quenching analysis relative to control
[13] = Binding affinity to 5'-CCCCGGGG-3' DNA hairpin assessed as change in fluorescence intensity at 1 uM after 45 mins by fluorescence quenching analysis relative to control
[14] = Binding affinity to 5'-GCGGCGCC-3' DNA hairpin assessed as change in fluorescence intensity at 1 uM after 45 mins by fluorescence quenching analysis relative to control
[15] = Binding affinity to 5'-CCGCGGGC-3' DNA hairpin assessed as change in fluorescence intensity at 1 uM after 45 mins by fluorescence quenching analysis relative to control
[16] = Binding affinity to 5'-GCCCCCGG-3' DNA hairpin assessed as change in fluorescence intensity at 1 uM after 45 mins by fluorescence quenching analysis relative to control
[17] = Binding affinity to 5'-CCCGGCCG-3' DNA hairpin assessed as change in fluorescence intensity at 1 uM after 45 mins by fluorescence quenching analysis relative to control
[18] = Binding affinity to 5'-CGGGCCGC-3' DNA hairpin assessed as change in fluorescence intensity at 1 uM after 45 mins by fluorescence quenching analysis relative to control
[19] = Binding affinity to 5'-CGCCGGCC-3' DNA hairpin assessed as change in fluorescence intensity at 1 uM after 45 mins by fluorescence quenching analysis relative to control
[20] = Binding affinity to 5'-GCCGGCGG-3' DNA hairpin assessed as change in fluorescence intensity at 1 uM after 45 mins by fluorescence quenching analysis relative to control
[21] = Binding affinity to 5'-CGGGCCCC-3' DNA hairpin assessed as change in fluorescence intensity at 1 uM after 45 mins by fluorescence quenching analysis relative to control
[22] = Binding affinity to 5'-CCCGCCGG-3' DNA hairpin assessed as change in fluorescence intensity at 1 uM after 45 mins by fluorescence quenching analysis relative to control
[23] = Binding affinity to 5'-GGCGCCCG-3' DNA hairpin assessed as change in fluorescence intensity at 1 uM after 45 mins by fluorescence quenching analysis relative to control
[24] = Binding affinity to 5'-GCCGCGGC-3' DNA hairpin assessed as change in fluorescence intensity at 1 uM after 45 mins by fluorescence quenching analysis relative to control
[25] = Binding affinity to 5'-CCGGCGCC-3' DNA hairpin assessed as change in fluorescence intensity at 1 uM after 45 mins by fluorescence quenching analysis relative to control
[26] = Binding affinity to 5'-CGCCCCCC-3' DNA hairpin assessed as change in fluorescence intensity at 1 uM after 45 mins by fluorescence quenching analysis relative to control
[27] = Binding affinity to 5'-CCCCGCGG-3' DNA hairpin assessed as change in fluorescence intensity at 1 uM after 45 mins by fluorescence quenching analysis relative to control
[28] = Binding affinity to 5'-CCCGGGCG-3' DNA hairpin assessed as change in fluorescence intensity at 1 uM after 45 mins by fluorescence quenching analysis relative to control
[29] = Binding affinity to 5'-GCGGGCGG-3' DNA hairpin assessed as change in fluorescence intensity at 1 uM after 45 mins by fluorescence quenching analysis relative to control
[30] = Binding affinity to 5'-CGGCGCCG-3' DNA hairpin assessed as change in fluorescence intensity at 1 uM after 45 mins by fluorescence quenching analysis relative to control
[31] = Binding affinity to 5'-GGCGGCCG-3' DNA hairpin assessed as change in fluorescence intensity at 1 uM after 45 mins by fluorescence quenching analysis relative to control
[32] = Binding affinity to 5'-CCGCGGGG-3' DNA hairpin assessed as change in fluorescence intensity at 1 uM after 45 mins by fluorescence quenching analysis relative to control
[33] = Binding affinity to 5'-GCGCCGGG-3' DNA hairpin assessed as change in fluorescence intensity at 1 uM after 45 mins by fluorescence quenching analysis relative to control
[34] = Binding affinity to 5'-CGGGCGGG-3' DNA hairpin assessed as change in fluorescence intensity at 1 uM after 45 mins by fluorescence quenching analysis relative to control
[35] = Binding affinity to 5'-GGGCGGCC-3' DNA hairpin assessed as change in fluorescence intensity at 1 uM after 45 mins by fluorescence quenching analysis relative to control
[36] = Binding affinity to 5'-GGGCCCCC-3' DNA hairpin assessed as change in fluorescence intensity at 1 uM after 45 mins by fluorescence quenching analysis relative to control

`NCC1O[C@H](O[C@H]2[C@@H](O)[C@H](O[C@@H]3[C@@H](O)[C@H](N)C[C@H](N)[C@H]3O[C@H]3O[C@H](CN)[C@@H](O)[C@H](O)[C@H]3N)O[C@@H]2CSCCNC(=O)CCSCC(=O)Nc2ccc(-c3c4ccc(=O)cc-4oc4cc(O)ccc34)c(C(=O)O)c2)[C@H](N)[C@@H](O)[C@@H]1O` (stereo partly specified) showed an Activity [1] of 57.5%, an Activity [2] of 44.6% and an Activity [3] of 49.4%. It also gave an Activity [4] of 52.5%, an Activity [5] of 26.7% and an Activity [6] of 44%. The Activity [7] was 45.7%, the Activity [8] was 47.9% and the Activity [9] was 43.1%. The Activity [10] was 43.8%, the Activity [11] was 49.7% and the Activity [12] was 44.8%. For the same compound, the Activity [13] was 32.7%, the Activity [14] was 49.9% and the Activity [15] was 45.7%. It also gave an Activity [16] of 16%, an Activity [17] of 44.5% and an Activity [18] of 52.5%. For the same compound, the Activity [19] was 48.6%, the Activity [20] was 53.8% and the Activity [21] was 35.1%. It also gave an Activity [22] of 50.9%, an Activity [23] of 43.7% and an Activity [24] of 56.3%. The Activity [25] was 48.9%, the Activity [26] was 25.1% and the Activity [27] was 53.3%. It also gave an Activity [28] of 39%, an Activity [29] of 45% and an Activity [30] of 42.9%. For the same compound, the Activity [31] was 56.4%, the Activity [32] was 48.6% and the Activity [33] was 46.9%. For the same compound, the Activity [34] was 50.6%, the Activity [35] was 49.4% and the Activity [36] was 15%.
